Laboratory results published in ChEMBL document CHEMBL1201862, “PubChem BioAssay data set” (2004).
Active and inactive are the calls of the source.

Tests used:
Paired box protein Pax-8 = Paired box protein Pax-8 (Homo sapiens, UniProt Q06710); assay: inhibitors of PAX8-driven TPO luciferase reporter, dose response, RMG-I cells, cherry-pick (AID 687027); type: functional, cell-based;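 further: luciferase reporter driven by Pax8 target thyroperoxidase promoter measured by SteadyGlo luminescence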
[1] = NIH:OVCAR-3 ovarian cancer cell cytotoxicity, dose response, PAX8 inhibitor project, plate reader, dry powder samples (AID 743044); type: functional, cell-based
[2] = P. falciparum Dd2 growth inhibitors, dose response, SYBR Green, cherry-picked samples (AID 1159567); type: functional, cell-based
[3] = HepG2 cell cytotoxicity, dose response, cytotoxicity control, cherry-picked samples (AID 1159577); type: functional, cell-based
[4] = inhibitors of firefly luciferase expression or activity, dose response, H4 neuroglioma cells, luminescence (AID 1990); type: functional, cell-based
[5] = test system: Streptococcus sp. 'group A'; assay: growth inhibition of control SK(-) GAS strain, dose response, counter-screen for streptokinase expression inhibitor project, luminescence, kanamycin, BacTiterGlo, confirmation (AID 1900); type: functional, organism-based
BJ [6] = assay: cytotoxicity toward BJ-TERT fibroblasts, dose response, cell-based, RAS-independent, luminescence (AID 1933); type: functional; conditions: Homo sapiens
[7] = Luminescence Cell-Based Dose Response HTS to Identify Inhibitors of 5'UTR Stem-Loop Driven Prion Protein mRNA Translation in H4 Neuroglioblastoma Cells. [Related pubchem assays: 1827 (Project Summary), 1813 (Primary HTS)]; type: functional
[8] = inhibitors of SNCA 5'UTR-driven reporter translation, confirmation, H4 neuroglioma cells, luminescence (AID 1988); type: functional, cell-based
BJ [9] = assay: cells; type: functional, cell-based; conditions: Homo sapiens
[10] = microbe, parasite or virus in culture; type: functional; conditions: Mycobacterium tuberculosis
BJ [11] = assay: cytotoxicity toward BJ-TERT-LT-ST fibroblasts, dose response, cell-based, RAS-independent, luminescence (AID 1935); type: functional; conditions: Homo sapiens;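 further: BJ fibroblasts immortalized with TERT plus LT and ST oncogenes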
[12] = cytotoxicity toward DRD oncogenic fibroblasts, dose response, cell-based, non-viral oncogenic, luminescence (AID 1934); type: functional; conditions: Homo sapiens
Streptococcus = assay: Group A Streptococcus viability loss, dose response, counter-screen for streptokinase expression inhibitor project, luminescence, BacTiterGlo (AID 1915); type: functional, organism-based;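 further: potency for reduction of bacterial viability or growth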
BJ [13] = assay: cytotoxicity toward Ras-transformed BJeLR fibroblasts, dose response, cell-based, alamar blue fluorescence, cherrypicked samples (AID 2631); type: functional; conditions: Homo sapiens;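 further: confirmatory dose-response assay in RAS-dependent BJ fibroblasts engineered with TERT, LT and ST, with cytotoxicity read by fluorescence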
INS1 = assay: beta cell apoptosis inhibitors, cytokine rescue, dose response, luminescence, retest (AID 449756); type: functional, cell-based; conditions: Rattus norvegicus;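 further: cell death triggered by IL-1 beta plus TNF-alpha plus IFN-gamma mixture; protective hits raise ATP signal compared with cytokine alone wells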
[14] = Shn3 3'UTR reporter inhibitors, dose response, cell-based, Clone20 osteoblasts, firefly luciferase, cherry-picked (AID 624132); type: functional;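 further: firefly luciferase luminescence from reporter carrying the Shn3 3'UTR in osteoblasts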
[15] = HepG2 cell cytotoxicity, dose response, cytotoxicity control for Shn3 inhibitor project, CellTiter-Glo, cherry-picked (AID 624134); type: functional, cell-based
[16] = control 3'UTR Renilla luciferase suppression, dose response, counter-screen for Shn3 inhibitor project, cell-based, Clone20-Shn3RL, cherry-picked (AID 624133); type: functional

Chain of Paired box protein Pax-8 (Q06710 whole entry): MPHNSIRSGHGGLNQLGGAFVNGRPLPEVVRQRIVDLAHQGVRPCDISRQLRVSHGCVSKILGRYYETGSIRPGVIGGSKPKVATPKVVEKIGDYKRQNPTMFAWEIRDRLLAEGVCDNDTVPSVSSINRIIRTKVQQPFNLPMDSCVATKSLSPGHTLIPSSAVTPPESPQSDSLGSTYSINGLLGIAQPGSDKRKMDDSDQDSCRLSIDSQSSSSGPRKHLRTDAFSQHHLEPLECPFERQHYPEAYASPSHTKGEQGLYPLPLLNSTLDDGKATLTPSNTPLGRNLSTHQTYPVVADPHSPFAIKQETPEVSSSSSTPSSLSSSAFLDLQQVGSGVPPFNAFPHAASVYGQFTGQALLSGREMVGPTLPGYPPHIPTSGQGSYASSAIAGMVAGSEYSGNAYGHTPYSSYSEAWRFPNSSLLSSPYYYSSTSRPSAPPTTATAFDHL

N#Cc1ccc(-c2ccc([C@@H]3[C@@H]4CN(C(=O)c5ccc6c(c5)OCO6)C[C@H]3N4)cc2)cc1
AC50 (Paired box protein Pax-8): 8390 nM (active)
AC50 [1]: 29100 nM (active)

O=C(Cc1cccnc1)N1CCCCN2[C@H](C1)[C@H](c1ccc(C#CC3CCCC3)cc1)[C@@H]2CO
AC50 (Paired box protein Pax-8): 5070 nM (active)
AC50 [1]: 9020 nM (active)

CC(C)N(C[C@H]1N[C@H](CO)[C@@H]1c1ccc(C2=CCCCC2)cc1)C(=O)CN(C)C
AC50 [2]: 1340 nM (active)
AC50 [3]: 10800 nM (active)

N#Cc1cccc(-c2ccc([C@@H]3[C@@H]4CN(Cc5ccccc5)C[C@H]3N4)cc2)c1
AC50 [2]: 5570 nM (active)
AC50 [3]: 15400 nM (active)

Cc1cccc(-c2ccc([C@H]3[C@@H](CO)N4CCCCN(CCC(F)(F)F)C[C@H]34)cc2)c1
AC50 [2]: 1010 nM (active)
AC50 [3]: 8620 nM (active)

O=C(c1ccc2c(c1)OCO2)N1C[C@@H]2N[C@H](C1)[C@@H]2c1ccc(/C=C/c2ccccc2)cc1
AC50 [2]: 4030 nM (active)
AC50 [3]: 11500 nM (active)

O=[N+]([O-])c1ccc(O)c(-c2cc(C(F)(F)F)nc(-c3ccccc3)n2)c1
EC50 [4]: 9180 nM (active)
EC50 [5]: 104 nM (active)
EC50 (BJ [6]): 2440 nM (active)
EC50 [7]: 9130 nM (active)
EC50 [8]: 8040 nM (inconclusive)
EC50 (BJ [9]): 2950 nM (active)
CC50 [10]: 546 nM (active)
EC50 (BJ [11]): 2140 nM (inconclusive)
EC50 [12]: 2960 nM (active)
EC50 (Streptococcus): 254 nM (active)
EC50 (BJ [13]): 571 nM (inconclusive)
AC50 (INS1): 1050 nM (active)
AC50 [14]: 2730 nM (active)
AC50 [15]: 1610 nM (active)
AC50 [16]: 906 nM (active)
AC50 (Paired box protein Pax-8): 811 nM (active)
